Consider 4 molecules from ChEMBL document CHEMBL3045961, “Synthesis and evaluation of some pyrimidine analogs against toxoplasmosis” (Med Chem Res, 2008).

The source made the active and inactive calls. No cut-off for these calls is given here.

Assay [1] deals with T1, Bifunctional dihydrofolate reductase-thymidylate synthase (Cryptosporidium parvum) (UniProt Q27552).
T1 sequence (whole entry): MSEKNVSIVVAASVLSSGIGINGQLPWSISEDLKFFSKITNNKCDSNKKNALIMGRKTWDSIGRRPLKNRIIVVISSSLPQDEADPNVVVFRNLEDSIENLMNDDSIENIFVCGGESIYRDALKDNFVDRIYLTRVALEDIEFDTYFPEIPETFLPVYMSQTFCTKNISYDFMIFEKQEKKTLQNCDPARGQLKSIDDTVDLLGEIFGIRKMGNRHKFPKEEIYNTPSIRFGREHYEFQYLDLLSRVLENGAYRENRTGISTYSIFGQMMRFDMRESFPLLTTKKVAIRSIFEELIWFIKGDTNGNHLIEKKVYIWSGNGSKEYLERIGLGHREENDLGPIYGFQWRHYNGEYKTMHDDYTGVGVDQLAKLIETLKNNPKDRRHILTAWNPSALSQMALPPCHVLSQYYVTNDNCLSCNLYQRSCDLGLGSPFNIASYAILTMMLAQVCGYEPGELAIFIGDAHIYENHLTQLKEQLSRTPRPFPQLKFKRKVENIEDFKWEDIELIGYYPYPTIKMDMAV
As to the kind of experiment: Ratio of trimethorpin IC50 to compound IC50 for Cryptosporidium parvum recombinant DHFR.

The next assay addresses T2, Dihydrofolate reductase (Homo sapiens, UniProt P00374).
T2 sequence (P00374 whole entry): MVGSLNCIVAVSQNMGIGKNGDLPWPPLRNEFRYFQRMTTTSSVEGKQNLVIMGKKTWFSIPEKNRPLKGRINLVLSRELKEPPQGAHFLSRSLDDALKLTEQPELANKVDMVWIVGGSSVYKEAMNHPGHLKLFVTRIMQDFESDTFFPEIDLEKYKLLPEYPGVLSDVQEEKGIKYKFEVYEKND
The assay is described as follows: Inhibition of Homo sapiens (human) dihydrofolate reductase using dihydrofolate as substrate incubated for 5 min prior to substrate addition by spectrophotometric assay.

Assay [2] deals with T3, Bifunctional dihydrofolate reductase-thymidylate synthase (Cryptosporidium parvum, UniProt Q27552).
T3 sequence (Q27552 whole entry): T1 sequence (whole entry)
The assay is described as follows: Inhibition of Cryptosporidium parvum recombinant DHFR using dihydrofolate as substrate incubated for 5 min prior to substrate addition by spectrophotometric assay.

The test system of assay [3] is Toxoplasma gondii. The assay is described as follows: Antiparasitic activity Toxoplasma gondii RH infected Swiss albino mouse assessed as decrease in interstitial pneumonia at 0.25 mg, po administered 48 hr post-infection measured after 3 days by haematoxylin and eosin staining relative to control. The assay is classed as functional, organism-based.
The test system of assay [4] is Toxoplasma gondii. The assay is described as follows: Antiparasitic activity Toxoplasma gondii RH infected Swiss albino mouse assessed as decrease in host lung congestion at 0.25 mg, po administered 48 hr post-infection measured after 3 days by haematoxylin and eosin staining relative to control. It counts as functional, organism-based.
Assay [5] concerns Toxoplasma gondii. The assay is described as follows: Antiparasitic activity Toxoplasma gondii RH infected Swiss albino mouse assessed as megakaryocytes in host spleen at 0.25 mg, po administered 48 hr post-infection measured after 3 days by haematoxylin and eosin staining relative to control. The assay is classed as functional, organism-based.
Assay [6] relates to Toxoplasma gondii. The assay is described as follows: Antiparasitic activity Toxoplasma gondii RH infected Swiss albino mouse assessed as extramedullary hematopoiesis in host spleen at 0.25 mg, po administered 48 hr post-infection measured after 3 days by haematoxylin and eosin staining relative to control. The assay is classed as functional, organism-based.
Assay [7] deals with Toxoplasma gondii. As to the kind of experiment: Antiparasitic activity Toxoplasma gondii RH infected Swiss albino mouse assessed as epethelioid granuloma in host spleen at 0.25 mg, po administered 48 hr post-infection measured after 3 days by haematoxylin and eosin staining relative to control. The assay is classed as functional, organism-based.
In assay [8] the test system is Toxoplasma gondii. As to the kind of experiment: Antiparasitic activity Toxoplasma gondii RH infected Swiss albino mouse assessed as increase in host spleen red pulp at 0.25 mg, po administered 48 hr post-infection measured after 3 days by haematoxylin and eosin staining relative to control. The assay is classed as functional, organism-based.
The test system of assay [9] is Toxoplasma gondii. As to the kind of experiment: Antiparasitic activity Toxoplasma gondii RH infected Swiss albino mouse assessed as decrease in host spleen white pulp at 0.25 mg, po administered 48 hr post-infection measured after 3 days by haematoxylin and eosin staining relative to control. It counts as functional, organism-based.
Assay [10] concerns Toxoplasma gondii. As to the kind of experiment: Antiparasitic activity Toxoplasma gondii RH infected Swiss albino mouse assessed as decrease in host spleen necrosis at 0.25 mg, po administered 48 hr post-infection measured after 3 days by haematoxylin and eosin staining relative to control. The assay is classed as functional, organism-based.
Assay [11] relates to Toxoplasma gondii. The assay is described as follows: Antiparasitic activity Toxoplasma gondii RH infected Swiss albino mouse assessed as clear lymphocytes in host liver focal granuloma at 0.25 mg, po administered 48 hr post-infection measured after 3 days by haematoxylin and eosin staining relative to control. It counts as functional, organism-based.
In assay [12] the test system is Toxoplasma gondii. As to the kind of experiment: Antiparasitic activity Toxoplasma gondii RH infected Swiss albino mouse assessed as clear mononuclear cells in host liver focal granuloma at 0.25 mg, po administered 48 hr post-infection measured after 3 days by haematoxylin and eosin staining relative to control. It counts as functional, organism-based.
The subject of assay [13] is Toxoplasma gondii. The assay is described as follows: Antiparasitic activity Toxoplasma gondii RH infected Swiss albino mouse assessed as decrease in host liver necrosis at 0.25 mg, po administered 48 hr post-infection measured after 3 days by haematoxylin and eosin staining relative to control. The assay is classed as functional, organism-based.
Assay [14] concerns Toxoplasma gondii. As to the kind of experiment: Antiparasitic activity Toxoplasma gondii RH infected Swiss albino mouse assessed as homogenous tachyzoites in host peritoneal exudate at 0.25 mg, po administered 48 hr post-infection measured after 3 days by scanning electron microscopic analysis. It counts as functional, organism-based.
For assay [15], the system named is Toxoplasma gondii. The assay is described as follows: Antiparasitic activity Toxoplasma gondii RH infected Swiss albino mouse assessed as smooth tachyzoites in host peritoneal exudate at 0.25 mg, po administered 48 hr post-infection measured after 3 days by scanning electron microscopic analysis. It counts as functional, organism-based.
The test system of assay [16] is Toxoplasma gondii. As to the kind of experiment: Antiparasitic activity Toxoplasma gondii RH infected Swiss albino mouse assessed as dimpled parasite surface in host peritoneal exudate at 0.25 mg, po administered 48 hr post-infection measured after 3 days by scanning electron microscopic analysis. The assay is classed as functional, organism-based.
Assay [17] has as its system Toxoplasma gondii. The assay is described as follows: Antiparasitic activity Toxoplasma gondii RH infected Swiss albino mouse assessed as deep ridged parasite surface in host peritoneal exudate at 0.25 mg, po administered 48 hr post-infection measured after 3 days by scanning electron microscopic analysis. It counts as functional, organism-based.
The subject of assay [18] is Toxoplasma gondii. The assay is described as follows: Antiparasitic activity Toxoplasma gondii RH infected Swiss albino mouse assessed as parasite deformity in host peritoneal exudate at 0.25 mg, po administered 48 hr post-infection measured after 3 days by light microscopic analysis. It counts as functional, organism-based.
The subject of assay [19] is Toxoplasma gondii. As to the kind of experiment: Antiparasitic activity Toxoplasma gondii RH infected Swiss albino mouse assessed as decreased parasite movement in host peritoneal exudate at 0.25 mg, po administered 48 hr post-infection measured after 3 days by light microscopic analysis. The assay is classed as functional, organism-based.
The subject of assay [20] is Toxoplasma gondii. The assay is described as follows: Antiparasitic activity Toxoplasma gondii RH infected Swiss albino mouse assessed as decrease in Toxoplasma antigen in host serum at 0.25 mg, po administered 48 hr post-infection measured after 3 days by Co-A test relative to control. It counts as functional, organism-based.
Assay [21] has as its system Toxoplasma gondii. As to the kind of experiment: Antiparasitic activity against Toxoplasma gondii RH infected Swiss albino mouse assessed as decrease in tachozyte count in spleen at 0.25 mg, po administered 48 hr post-infection measured after 3 days by Geimsa staining relative to control. It counts as functional, organism-based.
The subject of assay [22] is Toxoplasma gondii. As to the kind of experiment: Antiparasitic activity against Toxoplasma gondii RH infected Swiss albino mouse assessed as decrease in tachozyte count in liver at 0.25 mg, po administered 48 hr post-infection measured after 3 days by Geimsa staining relative to control. It counts as functional, organism-based.
Assay [23] concerns Toxoplasma gondii. As to the kind of experiment: Antiparasitic activity Toxoplasma gondii RH infected Swiss albino mouse assessed as decrease in tachyzoites end tapering in host peritoneal exudate at 0.25 mg, po administered 48 hr post-infection measured after 3 days by scanning electron microscopic analysis. The assay is classed as functional, organism-based.
For assay [24], the system named is Toxoplasma gondii. As to the kind of experiment: Antiparasitic activity Toxoplasma gondii RH infected Swiss albino mouse assessed as elongated tachyzoites in host peritoneal exudate at 0.25 mg, po administered 48 hr post-infection measured after 3 days by scanning electron microscopic analysis. The assay is classed as functional, organism-based.
The subject of assay [25] is Toxoplasma gondii. As to the kind of experiment: Antiparasitic activity Toxoplasma gondii RH infected Swiss albino mouse assessed as disorganised parasite conoid in host peritoneal exudate at 0.25 mg, po administered 48 hr post-infection measured after 3 days by scanning electron microscopic analysis. The assay is classed as functional, organism-based.
In assay [26] the test system is Toxoplasma gondii. As to the kind of experiment: Antiparasitic activity Toxoplasma gondii RH infected Swiss albino mouse assessed as loss of parasite crescent shape in host peritoneal exudate at 0.25 mg, po administered 48 hr post-infection measured after 3 days by scanning electron microscopic analysis. It counts as functional, organism-based.
The test system of assay [27] is Toxoplasma gondii. The assay is described as follows: Antiparasitic activity Toxoplasma gondii RH infected Swiss albino mouse assessed as parasite dimpled conoid in host peritoneal exudate at 0.25 mg, po administered 48 hr post-infection measured after 3 days by scanning electron microscopic analysis. It counts as functional, organism-based.
For assay [28], the system named is Toxoplasma gondii. The assay is described as follows: Antiparasitic activity Toxoplasma gondii RH infected Swiss albino mouse assessed as multiple deep ridged parasite surface in host peritoneal exudate at 0.25 mg, po administered 48 hr post-infection measured after 3 days by scanning electron microscopic analysis. It counts as functional, organism-based.

On to `CC(=O)C1=C(C)N=C(SCCC(=O)O)NC1c1cccc(O)c1` (stereo not drawn), for which the Ratio IC50 in [1] was found to be 40. Further, the IC50 was 94 nM against Dihydrofolate reductase and 65 nM in assay [2]. In addition, the result in the assay on Toxoplasma gondii [3], in the assay with Toxoplasma gondii [8], with Toxoplasma gondii [9], in the assay with Toxoplasma gondii [10], in the assay on Toxoplasma gondii [11] and in the assay with Toxoplasma gondii [12] was Active. Also, the result with Toxoplasma gondii [13], in the assay with Toxoplasma gondii [14], in the assay on Toxoplasma gondii [15], with Toxoplasma gondii [16], in the assay with Toxoplasma gondii [17] and with Toxoplasma gondii [18] was Active. In addition, the result with Toxoplasma gondii [19], in the assay with Toxoplasma gondii [20], with Toxoplasma gondii [21] and with Toxoplasma gondii [22] was Active. Also, the outcome in the assay on Toxoplasma gondii [4], in the assay with Toxoplasma gondii [5], in the assay on Toxoplasma gondii [6] and in the assay with Toxoplasma gondii [7] was inactive.
Consider `CC(=O)C1=C(C)N=C(SCCC(=O)O)NC1c1ccccc1` (stereo not drawn), for which the Ratio IC50 in [1] came out at 40. Further, the results for the 50% inhibitory concentration (IC50) (on Dihydrofolate reductase; in [2]) were 1.3 nM and 27 nM, respectively. For the same molecule, the result in the assay on Toxoplasma gondii [3], in the assay on Toxoplasma gondii [7], in the assay on Toxoplasma gondii [8], with Toxoplasma gondii [9], in the assay on Toxoplasma gondii [10] and with Toxoplasma gondii [11] was Active. The outcome in the assay with Toxoplasma gondii [12], in the assay with Toxoplasma gondii [13], in the assay on Toxoplasma gondii [23], with Toxoplasma gondii [24], in the assay with Toxoplasma gondii [25] and with Toxoplasma gondii [26] was Active. Further, the outcome in the assay on Toxoplasma gondii [18], with Toxoplasma gondii [19], with Toxoplasma gondii [20], in the assay with Toxoplasma gondii [21] and with Toxoplasma gondii [22] was Active. In addition, the outcome with Toxoplasma gondii [4], in the assay with Toxoplasma gondii [5] and in the assay with Toxoplasma gondii [6] was inactive.
In the case of `CCOC(=O)C1=C(C)N=C(SCCC(=O)O)NC1c1ccccc1OC` (stereo not drawn), the Ratio IC50 in assay [1] is 40. For the same molecule, the concentration for half-maximal inhibition (IC50) on Dihydrofolate reductase came to 8.9 nM; in assay [2], 75 nM. The result in the assay with Toxoplasma gondii [3], in the assay with Toxoplasma gondii [8], in the assay on Toxoplasma gondii [9], in the assay with Toxoplasma gondii [10], with Toxoplasma gondii [11] and with Toxoplasma gondii [12] was Active. Also, the outcome with Toxoplasma gondii [13], with Toxoplasma gondii [27], with Toxoplasma gondii [25], in the assay on Toxoplasma gondii [26], in the assay with Toxoplasma gondii [18] and in the assay with Toxoplasma gondii [19] was Active. Moreover, the outcome in the assay with Toxoplasma gondii [20], in the assay on Toxoplasma gondii [21] and with Toxoplasma gondii [22] was Active. Moreover, the outcome in the assay on Toxoplasma gondii [4], with Toxoplasma gondii [5], in the assay with Toxoplasma gondii [6] and with Toxoplasma gondii [7] was inactive.
`CCOC(=O)C1=C(C)NC(S/C(=C\c2ccc(OC)cc2)C(=O)OCC)=NC1c1ccccc1` (stereo not drawn): the Ratio IC50 in assay [1] was 40. For the same molecule, the values for the half-inhibitory concentration (IC50) (against Dihydrofolate reductase; in assay [2]) were 10 nM and 38 nM, respectively. Further, the outcome in the assay on Toxoplasma gondii [3], in the assay on Toxoplasma gondii [5], in the assay with Toxoplasma gondii [6], in the assay on Toxoplasma gondii [8], in the assay on Toxoplasma gondii [9] and with Toxoplasma gondii [10] was Active. Moreover, the outcome with Toxoplasma gondii [11], in the assay on Toxoplasma gondii [12], with Toxoplasma gondii [13], with Toxoplasma gondii [28], in the assay on Toxoplasma gondii [18] and with Toxoplasma gondii [19] was Active. The result with Toxoplasma gondii [20], with Toxoplasma gondii [21] and in the assay on Toxoplasma gondii [22] was Active. Moreover, the result in the assay with Toxoplasma gondii [4] and with Toxoplasma gondii [7] was inactive.
